Measured values reported in patent publication US9113629B2, “4-amino-6-(4-substituted-phenyl)-picolinates and 6-amino-2-(4-substituted-phenyl)-pyrimidine-4-carboxylates and their use as herbicides” (DOW AGROSCIENCES LLC, priority 2013, dated 2015).
Like-named read-outs stand apart in the source and are kept apart here.

Key:
[1] = system: Key Grass and Sedge Weeds as well as Grass Crops; test: Post-emergent Test II herbicidal activity (Table 6); assay type: in vivo; conditions: post-emergence, 336 h
Outline: (§1)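 Injury was rated visually 14 d after treatment on a 0–100% scale against untreated controls. Test compounds, formulated with crop oil concentrate and surfactant and serially diluted down to 1/16× of the top rate, were applied by track sprayer at 187 L/ha onto first- to second-true-leaf seedlings.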

[2] = system: Key Broadleaf Weed and Crop Species; test: Post-emergent Test II herbicidal activity (Table 5); assay type: in vivo; conditions: post-emergence, 336 h, 14 days after application; for pest or weed control at 70 g/ha: application rate 70 g ai/ha; for pest or weed control at 140 g/ha: application rate 140 g ai/ha
Outline: as §1

[3] = CYPES: yellow nutsedge (Cyperus esculentus), 70 g ai/ha, read-out: Visual Growth Reduction (%) 14 Days After Application, CYPES
[4] = CYPES: yellow nutsedge (Cyperus esculentus), 140 g ai/ha, read-out: Visual Growth Reduction (%) 14 Days After Application, CYPES
[5] = DIGSA: crabgrass (Digitaria sanguinalis), 70 g ai/ha, read-out: Visual Growth Reduction (%) 14 Days After Application, DIGSA
[6] = DIGSA: crabgrass (Digitaria sanguinalis), 140 g ai/ha, read-out: Visual Growth Reduction (%) 14 Days After Application, DIGSA
[7] = ECHCG: barnyardgrass (Echinochloa crus-galli), 70 g ai/ha, read-out: Visual Growth Reduction (%) 14 Days After Application, ECHCG
[8] = ECHCG: barnyardgrass (Echinochloa crus-galli), 140 g ai/ha, read-out: Visual Growth Reduction (%) 14 Days After Application, ECHCG
[9] = ORYSA: rice (Oryza sativa), crop, 70 g ai/ha, read-out: Visual Growth Reduction (%) 14 Days After Application, ORYSA
[10] = ORYSA: rice (Oryza sativa), crop, 140 g ai/ha, read-out: Visual Growth Reduction (%) 14 Days After Application, ORYSA
[11] = SETFA: giant foxtail (Setaria faberi), 70 g ai/ha, read-out: Visual Growth Reduction (%) 14 Days After Application, SETFA
[12] = SETFA: giant foxtail (Setaria faberi), 140 g ai/ha, read-out: Visual Growth Reduction (%) 14 Days After Application, SETFA
[13] = SORVU: grain sorghum (Sorghum vulgare), 70 g ai/ha, read-out: Visual Growth Reduction (%) 14 Days After Application, SORVU
[14] = SORVU: grain sorghum (Sorghum vulgare), 140 g ai/ha, read-out: Visual Growth Reduction (%) 14 Days After Application, SORVU
[15] = TRZSS (wheat, Triticum aestivum), crop, 70 g ai/ha, read-out: Visual Growth Reduction (%) 14 Days After Application, TRZSS
[16] = TRZSS (wheat, Triticum aestivum), crop, 140 g ai/ha, read-out: Visual Growth Reduction (%) 14 Days After Application, TRZSS
[17] = ZEAMX: maize, corn (Zea mays), crop, 70 g ai/ha, read-out: Visual Growth Reduction (%) 14 Days After Application, ZEAMX
[18] = ZEAMX: maize, corn (Zea mays), crop, 140 g ai/ha, read-out: Visual Growth Reduction (%) 14 Days After Application, ZEAMX
[19] = ABUTH: velvetleaf (Abutilon theophrasti), read-out: Visual Growth Reduction (%) 14 Days After Application, ABUTH
[20] = AMARE: redroot pigweed (Amaranthus retroflexus), read-out: Visual Growth Reduction (%) 14 Days After Application, AMARE
[21] = BRSNN: oilseed-rape, canola (Brassica napus), read-out: Visual Growth Reduction (%) 14 Days After Application, BRSNN
[22] = CHEAL: lambsquarters (Chenopodium album), read-out: Visual Growth Reduction (%) 14 Days After Application, CHEAL
[23] = EPHHL: wild poinsettia (Euphorbia heterophylla), read-out: Visual Growth Reduction (%) 14 Days After Application, EPHHL
[24] = HELAN: sunflower (Helianthus annuus), read-out: Visual Growth Reduction (%) 14 Days After Application, HELAN
[25] = VIOTR: wild pansy (Viola tricolor), read-out: Visual Growth Reduction (%) 14 Days After Application, VIOTR

SMILES | melting point | pest or weed control at 70 g/ha [1, 3] | pest or weed control at 140 g/ha [1, 4] | pest or weed control at 70 g/ha [1, 5] | pest or weed control at 140 g/ha [1, 6] | pest or weed control at 70 g/ha [1, 7] | pest or weed control at 70 g/ha [2, 19] | pest or weed control at 140 g/ha [2, 19] | pest or weed control at 70 g/ha [2, 20] | pest or weed control at 140 g/ha [2, 20] | pest or weed control at 70 g/ha [2, 21] | pest or weed control at 140 g/ha [2, 21] | pest or weed control at 70 g/ha [2, 22] | pest or weed control at 140 g/ha [2, 22] | pest or weed control at 70 g/ha [2, 23] | pest or weed control at 140 g/ha [2, 23] | pest or weed control at 70 g/ha [2, 24] | pest or weed control at 140 g/ha [2, 24] | pest or weed control at 70 g/ha [2, 25] | pest or weed control at 140 g/ha [2, 25] | also measured
COC(=O)c1nc(-c2ccc(Br)cc2F)nc(N)c1OC [Compound 35] | 163 to 165 °C | 95 to 100% | 95 to 100% | 45 to 59% | 85 to 94% | 30 to 44% | 95 to 100% | 95 to 100% | 75 to 84% | 95 to 100% | 95 to 100% | 95 to 100% | 95 to 100% | 95 to 100% | 95 to 100% | 95 to 100% | 95 to 100% | 95 to 100% | 85 to 94% | 95 to 100% | pest or weed control at 140 g/ha [1, 8]: 85 to 94%; pest or weed control at 70 g/ha [1, 9]: 0 to 29%; pest or weed control at 140 g/ha [1, 10]: 0 to 29%; pest or weed control at 70 g/ha [1, 11]: 0 to 29%; pest or weed control at 140 g/ha [1, 12]: 45 to 59%; pest or weed control at 70 g/ha [1, 13]: 45 to 59%; pest or weed control at 140 g/ha [1, 14]: 60 to 74%; pest or weed control at 70 g/ha [1, 15]: 30 to 44%; pest or weed control at 140 g/ha [1, 16]: 45 to 59%; pest or weed control at 70 g/ha [1, 17]: 95 to 100%; pest or weed control at 140 g/ha [1, 18]: 95 to 100%
Nc1cc(-c2ccc(I)c(F)c2F)nc(C(=O)O)c1Cl [Compound 38] | 288 to 293 °C (dec.) | – | – | – | – | – | 95 to 100% | 95 to 100% | 85 to 94% | 95 to 100% | 95 to 100% | 95 to 100% | 85 to 94% | 95 to 100% | 95 to 100% | 95 to 100% | 75 to 84% | 85 to 94% | 95 to 100% | 95 to 100% | pest or weed control at 70 g/ha ([1]; Triticum aestivum, TRZSS (wheat), application rate 70 g ai/ha, read-out: Visual Growth Reduction (%) 14 Days After Application, TRZSS): 60 to 74%; pest or weed control at 140 g/ha ([1]; Triticum aestivum, TRZSS (wheat), application rate 140 g ai/ha, read-out: Visual Growth Reduction (%) 14 Days After Application, TRZSS): 60 to 74%; pest or weed control at 70 g/ha ([1]; CYPES: yellow nutsedge (Cyperus esculentus), application rate 70 g ai/ha, read-out: Visual Growth Reduction (%) 14 Days After Application, CYPES): 95 to 100%; pest or weed control at 140 g/ha ([1]; CYPES: yellow nutsedge (Cyperus esculentus), application rate 140 g ai/ha, read-out: Visual Growth Reduction (%) 14 Days After Application, CYPES): 95 to 100%; pest or weed control at 70 g/ha ([1]; DIGSA: crabgrass (Digitaria sanguinalis), application rate 70 g ai/ha, read-out: Visual Growth Reduction (%) 14 Days After Application, DIGSA): 75 to 84%; pest or weed control at 140 g/ha ([1]; DIGSA: crabgrass (Digitaria sanguinalis), application rate 140 g ai/ha, read-out: Visual Growth Reduction (%) 14 Days After Application, DIGSA): 75 to 84%; pest or weed control at 70 g/ha ([1]; ECHCG: barnyardgrass (Echinochloa crus-galli), application rate 70 g ai/ha, read-out: Visual Growth Reduction (%) 14 Days After Application, ECHCG): 95 to 100%; pest or weed control at 140 g/ha ([1]; ECHCG: barnyardgrass (Echinochloa crus-galli), application rate 140 g ai/ha, read-out: Visual Growth Reduction (%) 14 Days After Application, ECHCG): 95 to 100%; pest or weed control at 70 g/ha ([1]; ORYSA: rice (Oryza sativa), application rate 70 g ai/ha, read-out: Visual Growth Reduction (%) 14 Days After Application, ORYSA): 0 to 29%; pest or weed control at 140 g/ha ([1]; ORYSA: rice (Oryza sativa), application rate 140 g ai/ha, read-out: Visual Growth Reduction (%) 14 Days After Application, ORYSA): 0 to 29%; pest or weed control at 70 g/ha ([1]; SETFA: giant foxtail (Setaria faberi), application rate 70 g ai/ha, read-out: Visual Growth Reduction (%) 14 Days After Application, SETFA): 95 to 100%; pest or weed control at 140 g/ha ([1]; SETFA: giant foxtail (Setaria faberi), application rate 140 g ai/ha, read-out: Visual Growth Reduction (%) 14 Days After Application, SETFA): 95 to 100%; pest or weed control at 70 g/ha ([1]; SORVU: grain sorghum (Sorghum vulgare), application rate 70 g ai/ha, read-out: Visual Growth Reduction (%) 14 Days After Application, SORVU): 85 to 94%; pest or weed control at 140 g/ha ([1]; SORVU: grain sorghum (Sorghum vulgare), application rate 140 g ai/ha, read-out: Visual Growth Reduction (%) 14 Days After Application, SORVU): 85 to 94%; pest or weed control at 70 g/ha ([1]; ZEAMX: maize, corn (Zea mays), application rate 70 g ai/ha, read-out: Visual Growth Reduction (%) 14 Days After Application, ZEAMX): 85 to 94%; pest or weed control at 140 g/ha ([1]; ZEAMX: maize, corn (Zea mays), application rate 140 g ai/ha, read-out: Visual Growth Reduction (%) 14 Days After Application, ZEAMX): 95 to 100%
C#Cc1ccc(-c2nc(N)c(OC)c(C(=O)O)n2)c(F)c1 [Compound 41] | 155 to 165 °C (dec.) | 0 to 29% | 0 to 29% | 0 to 29% | 0 to 29% | 0 to 29% | 0 to 29% | 0 to 29% | 0 to 29% | 0 to 29% | 0 to 29% | 45 to 59% | 0 to 29% | 60 to 74% | 0 to 29% | 0 to 29% | 60 to 74% | 75 to 84% | 0 to 29% | 0 to 29% | pest or weed control at 140 g/ha [1, 8]: 0 to 29%; pest or weed control at 70 g/ha [1, 9]: 0 to 29%; pest or weed control at 140 g/ha [1, 10]: 0 to 29%; pest or weed control at 70 g/ha [1, 11]: 0 to 29%; pest or weed control at 140 g/ha [1, 12]: 0 to 29%; pest or weed control at 70 g/ha [1, 13]: 0 to 29%; pest or weed control at 140 g/ha [1, 14]: 0 to 29%; pest or weed control at 70 g/ha [1, 15]: 0 to 29%; pest or weed control at 140 g/ha [1, 16]: 0 to 29%; pest or weed control at 70 g/ha [1, 17]: 0 to 29%; pest or weed control at 140 g/ha [1, 18]: 0 to 29%
